Test results published in the supplement of paper PMC10307832.

Legend:
Experiment in all cases: relative viability (nuclei count vs DMSO), 5 days (fraction); higher = more cells survive
[1] = compound: CC1=CC=C(C=C1)C(=O)CN2C3=C(CCCC3)SC2=N [Pifithrin_alpha] + CCNC(=O)c1noc(-c2cc(C(C)C)c(O)cc2O)c1-c1ccc(CN2CCOCC2)cc1 [Luminespib] (partner 0.01 µM)
Method in brief: (§1)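 Each reported value is a median over duplicate plates. It expresses relative viability: treated-well nuclei count divided by vehicle-well nuclei count. Lung cancer cell lines in 1536-well plates were dosed by pin tool a day after seeding, alone with one drug or with a fixed anchor-drug dose plus five library-drug doses (not always all listed) in √10 steps, and nuclei were counted after 5 days.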

[2] = compound: CC1=CC=C(C=C1)C(=O)CN2C3=C(CCCC3)SC2=N [Pifithrin_alpha] + CC(C)C[C@H](NC(=O)[C@H](Cc1ccccc1)NC(=O)c1cnccn1)B(O)O [Bortezomib] (partner 0.002 µM)
Method in brief: as §1

Bemcentinib + Trametinib = compound: Nc1nc(Nc2ccc3c(c2)CC[C@@H](N2CCCC2)CC3)nn1-c1cc2c(nn1)-c1ccccc1CCC2 [Bemcentinib] + CC(=O)Nc1cccc(-n2c(=O)n(C3CC3)c(=O)c3c(Nc4ccc(I)cc4F)n(C)c(=O)c(C)c32)c1 [Trametinib] (partner 0.02 µM)
Method in brief: as §1

[3] = compound: CC1=CC=C(C=C1)C(=O)CN2C3=C(CCCC3)SC2=N [Pifithrin_alpha] + CS(=O)(=O)N1CCN(Cc2cc3nc(-c4cccc5[nH]ncc45)nc(N4CCOCC4)c3s2)CC1 [Pictilisib] (partner 1 µM)
Method in brief: as §1

## NCI-H1975
[1]; first compound 1 µM
  relative viability: 0.291
[1]; first compound 3.162 µM
  relative viability: 0.151
[1]; first compound 10 µM
  relative viability: 0.199
[1]; first compound 31.62 µM
  relative viability: 0.189
[1]; first compound 100 µM
  relative viability: 0.181
[2]; first compound 1 µM
  relative viability: 0.34
[2]; first compound 3.162 µM
  relative viability: 0.306
[2]; first compound 10 µM
  relative viability: 0.305
[2]; first compound 31.62 µM
  relative viability: 0.335
[2]; first compound 100 µM
  relative viability: 0.271
Bemcentinib + Trametinib; first compound 0.04 µM
  relative viability: 0.282
Bemcentinib + Trametinib; first compound 0.1265 µM
  relative viability: 0.399
Bemcentinib + Trametinib; first compound 0.4 µM
  relative viability: 0.365
Bemcentinib + Trametinib; first compound 1.265 µM
  relative viability: 0.36
Bemcentinib + Trametinib; first compound 4 µM
  relative viability: 0.344
[3]; first compound 1 µM
  relative viability: 0.232
[3]; first compound 3.162 µM
  relative viability: 0.18
[3]; first compound 10 µM
  relative viability: 0.187
[3]; first compound 31.62 µM
  relative viability: 0.193
[3]; first compound 100 µM
  relative viability: 0.18

## NCI-H1651
[1]; first compound 1 µM
  relative viability: 0.988
[1]; first compound 3.162 µM
  relative viability: 1.27
[1]; first compound 10 µM
  relative viability: 0.944
[1]; first compound 31.62 µM
  relative viability: 0.438
[1]; first compound 100 µM
  relative viability: 0.625
[2]; first compound 1 µM
  relative viability: 0.857
[2]; first compound 3.162 µM
  relative viability: 0.929
[2]; first compound 10 µM
  relative viability: 0.916
[2]; first compound 31.62 µM
  relative viability: 0.88
[2]; first compound 100 µM
  relative viability: 1.02
Bemcentinib + Trametinib; first compound 0.04 µM
  relative viability: 0.85
Bemcentinib + Trametinib; first compound 0.1265 µM
  relative viability: 0.831
Bemcentinib + Trametinib; first compound 0.4 µM
  relative viability: 0.788
Bemcentinib + Trametinib; first compound 1.265 µM
  relative viability: 0.951
Bemcentinib + Trametinib; first compound 4 µM
  relative viability: 0.852
[3]; first compound 1 µM
  relative viability: 0.687
[3]; first compound 3.162 µM
  relative viability: 0.541
[3]; first compound 10 µM
  relative viability: 0.66
[3]; first compound 31.62 µM
  relative viability: 0.365
[3]; first compound 100 µM
  relative viability: 0.528

## NCI-H661
[1]; first compound 1 µM
  relative viability: 0.912
[1]; first compound 3.162 µM
  relative viability: 0.915
[1]; first compound 10 µM
  relative viability: 0.949
[1]; first compound 31.62 µM
  relative viability: 0.881
[1]; first compound 100 µM
  relative viability: 0.921
[2]; first compound 1 µM
  relative viability: 0.784
[2]; first compound 3.162 µM
  relative viability: 0.82
[2]; first compound 10 µM
  relative viability: 0.909
[2]; first compound 31.62 µM
  relative viability: 0.925
[2]; first compound 100 µM
  relative viability: 1.02
Bemcentinib + Trametinib; first compound 0.04 µM
  relative viability: 0.62
Bemcentinib + Trametinib; first compound 0.1265 µM
  relative viability: 0.678
Bemcentinib + Trametinib; first compound 0.4 µM
  relative viability: 0.604
Bemcentinib + Trametinib; first compound 1.265 µM
  relative viability: 0.553
Bemcentinib + Trametinib; first compound 4 µM
  relative viability: 0.595
[3]; first compound 1 µM
  relative viability: 0.322
[3]; first compound 3.162 µM
  relative viability: 0.391
[3]; first compound 10 µM
  relative viability: 0.359
[3]; first compound 31.62 µM
  relative viability: 0.472
[3]; first compound 100 µM
  relative viability: 0.333

## NCI-H23
[1]; first compound 1 µM
  relative viability: 0.231
[1]; first compound 3.162 µM
  relative viability: 0.218
[1]; first compound 10 µM
  relative viability: 0.206
[1]; first compound 31.62 µM
  relative viability: 0.205
[1]; first compound 100 µM
  relative viability: 0.187
[2]; first compound 1 µM
  relative viability: 0.917
[2]; first compound 3.162 µM
  relative viability: 0.978
[2]; first compound 10 µM
  relative viability: 1.06
[2]; first compound 31.62 µM
  relative viability: 0.61
[2]; first compound 100 µM
  relative viability: 0.875
Bemcentinib + Trametinib; first compound 0.04 µM
  relative viability: 0.363
Bemcentinib + Trametinib; first compound 0.1265 µM
  relative viability: 0.432
Bemcentinib + Trametinib; first compound 0.4 µM
  relative viability: 0.353
Bemcentinib + Trametinib; first compound 1.265 µM
  relative viability: 0.429
Bemcentinib + Trametinib; first compound 4 µM
  relative viability: 0.466
[3]; first compound 1 µM
  relative viability: 0.491
[3]; first compound 3.162 µM
  relative viability: 0.459
[3]; first compound 10 µM
  relative viability: 0.491
[3]; first compound 31.62 µM
  relative viability: 0.343
[3]; first compound 100 µM
  relative viability: 0.365

## PC-14
[1]; first compound 1 µM
  relative viability: 0.134
[1]; first compound 3.162 µM
  relative viability: 0.147
[1]; first compound 10 µM
  relative viability: 0.149
[1]; first compound 31.62 µM
  relative viability: 0.0887
[1]; first compound 100 µM
  relative viability: 0.0663
[2]; first compound 1 µM
  relative viability: 0.821
[2]; first compound 3.162 µM
  relative viability: 0.829
[2]; first compound 10 µM
  relative viability: 0.964
[2]; first compound 31.62 µM
  relative viability: 0.888
[2]; first compound 100 µM
  relative viability: 0.882
Bemcentinib + Trametinib; first compound 0.04 µM
  relative viability: 0.857
Bemcentinib + Trametinib; first compound 0.1265 µM
  relative viability: 0.783
Bemcentinib + Trametinib; first compound 0.4 µM
  relative viability: 0.947
Bemcentinib + Trametinib; first compound 1.265 µM
  relative viability: 0.879
Bemcentinib + Trametinib; first compound 4 µM
  relative viability: 0.892
[3]; first compound 1 µM
  relative viability: 0.764
[3]; first compound 3.162 µM
  relative viability: 0.674
[3]; first compound 10 µM
  relative viability: 0.645
[3]; first compound 31.62 µM
  relative viability: 0.495
[3]; first compound 100 µM
  relative viability: 0.563

## H3255
[1]; first compound 1 µM
  relative viability: 0.744
[1]; first compound 3.162 µM
  relative viability: 0.843
[1]; first compound 10 µM
  relative viability: 0.965
[1]; first compound 31.62 µM
  relative viability: 0.642
[1]; first compound 100 µM
  relative viability: 0.964
[2]; first compound 1 µM
  relative viability: 0.584
[2]; first compound 3.162 µM
  relative viability: 0.76
[2]; first compound 10 µM
  relative viability: 0.711
[2]; first compound 31.62 µM
  relative viability: 0.416
[2]; first compound 100 µM
  relative viability: 0.421
Bemcentinib + Trametinib; first compound 0.1265 µM
  relative viability: 0.749
Bemcentinib + Trametinib; first compound 0.4 µM
  relative viability: 0.696
Bemcentinib + Trametinib; first compound 1.265 µM
  relative viability: 0.674
Bemcentinib + Trametinib; first compound 4 µM
  relative viability: 0.706
[3]; first compound 1 µM
  relative viability: 0.432
[3]; first compound 3.162 µM
  relative viability: 0.612
[3]; first compound 10 µM
  relative viability: 0.497
[3]; first compound 31.62 µM
  relative viability: 0.35
[3]; first compound 100 µM
  relative viability: 0.491

## NCI-H3122
[1]; first compound 1 µM
  relative viability: 0.0988
[1]; first compound 3.162 µM
  relative viability: 0.106
[1]; first compound 10 µM
  relative viability: 0.0966
[1]; first compound 100 µM
  relative viability: 0.065
[2]; first compound 1 µM
  relative viability: 1.03
[2]; first compound 3.162 µM
  relative viability: 0.99
[2]; first compound 10 µM
  relative viability: 1.05
[2]; first compound 31.62 µM
  relative viability: 0.904
[2]; first compound 100 µM
  relative viability: 1
Bemcentinib + Trametinib; first compound 0.04 µM
  relative viability: 0.25
Bemcentinib + Trametinib; first compound 0.1265 µM
  relative viability: 0.248
Bemcentinib + Trametinib; first compound 0.4 µM
  relative viability: 0.214
Bemcentinib + Trametinib; first compound 1.265 µM
  relative viability: 0.252
Bemcentinib + Trametinib; first compound 4 µM
  relative viability: 0.244
[3]; first compound 1 µM
  relative viability: 0.628
[3]; first compound 3.162 µM
  relative viability: 0.596
[3]; first compound 10 µM
  relative viability: 0.577
[3]; first compound 31.62 µM
  relative viability: 0.563
[3]; first compound 100 µM
  relative viability: 0.732

## NCI-H2009
[1]; first compound 1 µM
  relative viability: 1.07
[1]; first compound 3.162 µM
  relative viability: 1.04
[1]; first compound 10 µM
  relative viability: 0.926
[1]; first compound 31.62 µM
  relative viability: 0.701
[1]; first compound 100 µM
  relative viability: 0.967
[2]; first compound 1 µM
  relative viability: 0.551
[2]; first compound 3.162 µM
  relative viability: 0.907
[2]; first compound 10 µM
  relative viability: 0.942
[2]; first compound 31.62 µM
  relative viability: 0.444
[2]; first compound 100 µM
  relative viability: 0.798
Bemcentinib + Trametinib; first compound 0.04 µM
  relative viability: 0.231
Bemcentinib + Trametinib; first compound 0.1265 µM
  relative viability: 0.321
Bemcentinib + Trametinib; first compound 0.4 µM
  relative viability: 0.232
Bemcentinib + Trametinib; first compound 1.265 µM
  relative viability: 0.273
Bemcentinib + Trametinib; first compound 4 µM
  relative viability: 0.268
[3]; first compound 1 µM
  relative viability: 0.658
[3]; first compound 3.162 µM
  relative viability: 0.78
[3]; first compound 10 µM
  relative viability: 0.816
[3]; first compound 31.62 µM
  relative viability: 0.365
[3]; first compound 100 µM
  relative viability: 0.594
